Reference: patent US20140273139A1, “Direct Fermentation of Biomass to Fuel Precursors” (Innovative Metabolism Inc., priority 2013, published 2014)

How the values were obtained:
[1] = system: P. chrysosporium and K. marxianus; assay: Solid-state fermentation of corn stover by consortium in the presence of carbon monoxide; type: cell-based, Phanerochaete chrysosporium / Kluyveromyces marxianus; conditions: 90% CO and 10% air, first 27 days
Protocol: In this example, solvent-producing fermentation was initiated by introduction of a mix of air and CO, a competitive inhibitor of cytochrome c oxidase. Corn stover was prepared as described in Example 7. A mixture of P. chrysosporium conidiospores and mycelia harvested from agar medium, and 1 ml of K. marxianus from an overnight culture in YPD broth were added to the stover. The mixture was transferred to the rotating drum of the solid-state bioreactor under sterile conditions. The bioreactor was sealed and placed in a 44° C. incubator.
Growth was established under aerobic conditions (10 ml/min of air was flowed through the bioreactor for 17 hours). Fermentation was initiated by flowing a mixture comprised of 90% CO and 10% air through the bioreactor. During the first 27 days productivity peaked at 2.3×10^−5 g solvent/hr/g biomass remaining and yield for the period was 5.7% of biomass consumed (FIG. 8).

[2] = system: P. chrysosporium; assay: Solid-state fermentation of corn stover by P. chrysosporium in the presence of carbon monoxide; type: cell-based, Phanerochaete chrysosporium; conditions: 10% air and 90% CO, through Day 44
Protocol: In this example solvent fermentation was initiated by introduction of a mix of 10% air and 90% CO. Corn stover was prepared as described in Example 7. P. chrysosporium conidiospores and mycelia harvested from agar medium were added to the stover and the mixture was transferred to the rotating drum of the solid-state bioreactor under sterile conditions. The bioreactor was sealed and placed in a 44° C. incubator. The volume of gas flow remained constant at 10 ml/min for the entire experiment.
The fermentor was run aerobically for 45 hours to establish growth. Between hour 45 and Day 44 a gas mix comprised of 10% air and 90% CO was flowed through the system. Fungal metabolic activity was restored by flowing air through the system from Day 51-55. From Day 57-65 the fermentation was run anaerobically in the absence of CO. Fungal metabolic activity was again restored by aerobic growth from Day 65-68, and then anaerobic fermentation was continued from Day 68-82.

[3] = system: P. chrysosporium; assay: Submerged liquid fermentation under reduced oxygen with the mitochondrial inhibitor rotenone (GC-MS, standard curves); type: cell-based, Phanerochaete chrysosporium
Protocol: In this experiment P. chrysosporium was grown from conidiospores in submerged liquid culture. The growth medium was Highley's Basal salts [Wymelenberg, A. V., et al., The Phanerochaete chrysosporium secretome: database predictions and initial mass spectrometry peptide identifications in cellulose-grown medium. J Biotechnol, 2005. 118(1): p. 17-34.] supplemented with 0.1% yeast extract (YE) and 2% glucose. Conidiospores were inoculated in 50 ml of liquid medium in a 250 ml Erlenmyer flask which was then capped with a 3-piece fermentation lock to prevent evaporation of volatile products and to allow the culture to incubate in a reduced oxygen environment. The culture was incubated statically.
A large mass of fungus was produced and remained suspended near the top of the medium. Samples were collected, transferred to glass septum vials and heated to 60° C. Samples were analyzed on a 6890N GC system with a 5975 Mass Selective Detector (Agilent) using a PH Innowax column. […] Standard curves were performed for each solvent. The concentrations in the fermentation broth were determined to be 0.74 mM for acetone, 1.8 mM for isopropanol, and 1.9 mM for ethanol. This experiment provided the first indication that P. chrysosporium was capable of fermenting sugars to acetone and isopropanol.

[4] = system: P. chrysosporium; assay: Submerged liquid fermentation in the presence of air and gaseous mitochondrial inhibitor (GC-MS of headspace); type: cell-based, Phanerochaete chrysosporium; conditions: aerobic culture, NO target concentration 1 μM, 2% glucose, 37° C.
Protocol: In this experiment P. chrysosporium was grown from conidiospores in submerged liquid culture. The growth medium was Highley's Basal salts [Wymelenberg, A. V., et al., The Phanerochaete chrysosporium secretome: database predictions and initial mass spectrometry peptide identifications in cellulose-grown medium. J Biotechnol, 2005. 118(1): p. 17-34.] supplemented with 0.1% yeast extract (YE) and 2% glucose. Conidiospores were inoculated in liquid medium in 3 neck flasks. The temperature was maintained at 37° C. The cultures were mixed using magnetic stir bars and gasses (air, nitrogen, and air supplemented with nitric oxide (NO)) were bubbled through the medium using stainless steel needles. Fungi were grown: 1) aerobically; 2) anaerobically; and 3) aerobically with NO delivered to a target concentration of 1 μM. Cultures were sampled daily and analyzed using GC-MS (FIG. 3). P. chrysosporium grew rapidly forming large, encapsulated masses of material.
The identity of the ethanol peak was confirmed by MS analysis. Samples were transferred to glass septum vials and heated to 60° C. A gas-tight syringe was used to sample 50 μl from the headspace. Samples were analyzed on a 6890N GC system with a 5975 Mass Selective Detector (Agilent) using a PH Innowax column.

[5] = rotenone-treated, reduced oxygen, static culture

## [C-]#[O+] [CO, carbon monoxide]
[1]
  solvents produced: Ethanol was the only solvent produced in significant quantities
[1]; 44° C.
  peak productivity: 2.3×10^−5 g solvent/hr/g biomass remaining
  solvent yield: 5.7 % of biomass consumed
[2]
  acetone share of solvent mix: 28%
  ethanol share of solvent mix: 72%
  isopropanol share of solvent mix: only trace amounts

## C=C(C)[C@H]1Cc2c(ccc3c2O[C@@H]2COc4cc(OC)c(OC)cc4[C@@H]2C3=O)O1 [Rotenone, rotenone]
[3]; liquid culture, oxygen-limited conditions, glucose
  solvents produced in the presence of the inhibitor: production of acetone, isopropanol and ethanol
[3]; [5]
  acetone concentration in the fermentation broth: 0.74 mM
  ethanol concentration in the fermentation broth: 1.9 mM
  isopropanol concentration in the fermentation broth: 1.8 mM

## nitric oxide
[4]
  ethanol production by the culture: appeared to enable ethanol production in the presence of dissolved oxygen
